This experiment relates to Plasmodium falciparum. The experiment is described as follows: GSK_TCMDC: Inhibition of Plasmodium falciparum 3D7 in whole erythrocytes, using parasite LDH activity as an index of growth. It counts as functional, organism-based. The following applies: Plasmodium falciparum, 3D7.
For `C=CCOc1ccccc1CNCC(O)c1cccc(C(F)(F)F)c1` (configuration not stated), the XC50 came to 845 nM.
The result for `O=C(Cn1c(CCc2cccc(F)c2F)nc(=O)c2cccnc21)N(Cc1ccc(-c2ccc(C(F)(F)F)cc2)cc1)C1CCN(C2CCOCC2)CC1` reads 828 nM.
Next, `CN(CCN1CCC(c2c[nH]c3ccccc23)CC1)C(=O)OCCCCCNC(=O)/C=C/c1ccc(Cl)c(Cl)c1`: 678 nM; `CC(C)(C)CN1C(=O)C(c2ccccc2)(c2ccccc2)N=C1N`: 515 nM; `COc1cccc(C=NNc2cc(C)nc3c(OC)cccc23)c1`: 578 nM.
Next, `CCn1c(C2CCN(CCC3CCN(C(=O)/C=C/c4ccc(Cl)c(Cl)c4)CC3)CC2)nc2ccccc21`: 1080 nM; `CNC(=O)CC(=O)NCCc1ccc(Cl)cc1`: 811 nM; `COC1(C)Oc2ccc3cccc([N+](=O)[O-])c3c2C1=O` (configuration not stated): 635 nM.
For the molecule `Cc1cc(=O)c2cc(-c3ccc(OC(F)(F)F)cc3)ccc2[nH]1`, the XC50 is 476 nM.
On to `CCCCCCCCc1nc(C)c(Br)c(O)c1Br`, for which the XC50 was 178 nM.
The result for `COc1cccc(Nc2nccc(NCC(O)c3cccc(C(F)(F)F)c3)n2)c1` (configuration not stated) reads 702 nM; that for `O=c1[nH]c2c(cc1CNC1CCCCC1)c(-c1cccc(F)c1)nn2-c1ccccc1`, 945 nM; that for `CC(CN1CCN(C)CC1)C(=O)Nc1ccc(-c2ccc(-c3nc4ccccc4[nH]3)cc2)cc1` (configuration not stated), 954 nM.
The result for `Cc1ccc(NC(=O)c2ccc(Cl)cc2)cc1-c1ccc(C(=O)Nc2ccncc2)cc1` reads 779 nM.
As to `c1ccc(Oc2ccc(Nc3nncc4ccccc34)cc2)cc1`, the XC50 was determined as 686 nM.
The result for `CC1(C)C(N(O)C(=O)Nc2ccc(Cl)c(Cl)c2)N(c2ccc(Cl)c(Cl)c2)C(=O)N1CCc1ccccc1` (configuration not stated) reads 823 nM; that for `COc1ccc2ccccc2c1CCCCN1CCN(CC(c2ccc(F)cc2)N2CCN(C(C)C)CC2)CC1` (configuration not stated), 809 nM; that for `c1ccc(COc2ccc(Nc3ncnc4ccc(-c5ccc(CN6CCSCC6)o5)cc34)cc2)cc1`, 827 nM.
The result for `Cc1cc(Nc2cccc(C(F)(F)F)c2)nc(Nc2cccc(C(F)(F)F)c2)n1` reads 644 nM.
Next, `CC(=O)c1ccc(-c2cccc3c(CC(=O)Nc4ccc5nccc(N6CCN(C)CC6)c5c4)cccc23)cc1`: 498 nM.
For `O=[N+]([O-])c1cccc(NC(=S)N2CCCN(Cc3ccc(F)cc3F)CC2)c1`, the XC50 was determined as 831 nM.
Take `N#Cc1ccc(NC2(C(=O)N3CCN(c4cccc(Cl)c4)CC3)CC2)c2ccccc12`: the XC50 is 1150 nM.
Turning to `N=C(N)Nc1nc(-c2ccc(NC(=N)N3CCC[C@H]3CN3CCCC3)cc2)cs1`, the XC50 is 1110 nM.
Turning to `c1ccc2ncc(CNCCCCCCCCNCc3cnc4ccccc4c3)cc2c1`, the XC50 was 846 nM.
The result for `CC1CN(c2ccc3occ(C(=O)Nc4ccc(-c5ccncc5)c(Cl)c4)c3c2)CC(C)N1C` (configuration not stated) reads 855 nM; that for `O=C(/C=C/c1ccc(Cl)c(Cl)c1)NCCCCCN1CCC(CCNC(=O)c2snnc2-c2ccccc2)CC1`, 822 nM.
The result for `O=C(Nc1ccc(-c2ccc(-c3nc4ccccc4[nH]3)s2)cc1)Nc1ccc(F)c(F)c1F` reads 194 nM.
As to `Fc1ccc2[nH]c(-c3cccc(-c4ccc(CN5CCCCC5)cc4)c3)nc2c1`, the XC50 turned out to be 163 nM.
In turn, `Oc1ccccc1CN1CCCC(COC(c2ccc(F)cc2)c2ccc(F)cc2)C1` (configuration not stated) displayed an XC50 of 775 nM.
Next, `O=C(Nc1ccc(F)cc1F)NC1CCN(CCCCCNC(=O)C2CC2c2ccc(Cl)c(Cl)c2)CC1` (configuration not stated): 496 nM.
The result for `COc1ccc(CNCc2ccccc2)cc1-c1ccc(S(=O)(=O)NCCN2CCCC2)s1` reads 674 nM.
For `COc1ccccc1CCNc1nc(C)cc(N[C@@H](CC(C)C)C(=O)Nc2ccccc2)n1`, the XC50 amounted to 1280 nM.
Next, `COc1ccccc1NC(=O)Nc1ccc(-c2ccc(-c3nc4cc(C(F)(F)F)ccc4[nH]3)cc2)cc1`: 544 nM.
The result for `COc1ccc2ncc(F)c(CCN3C4CCC3CC(NCc3cc5c(cn3)OCS5)C4)c2n1` (configuration not stated) reads 923 nM.
The result for `N=C(N)NCCN(Cc1ccccc1)c1ccc(Cl)cc1` reads 48 nM; that for `CC(C)(C(=O)Nc1ccc(C2CCC(NCC3CC3)CC2)c(Cl)c1)c1ccc(C(F)(F)F)cc1` (configuration not stated), 965 nM.
As to `CS(=O)(=O)Cc1ccc(Nc2ncc(Cl)c(Nc3cccnc3C(N)=O)n2)cc1`, the XC50 is 868 nM.
The molecule `N#Cc1ccc2c(c1)CCN(CCC1CCC(NC(=O)c3cc4cccc(Cl)c4[nH]3)CC1)CC2` (configuration not stated) gave an XC50 of 576 nM.
The result for `O=C(C=Cc1ccc(Cl)c(Cl)c1)NCCCCCN1CCC(CCNC(=O)c2cccc3ccccc23)CC1` reads 1590 nM; that for `Cc1noc(C)c1-c1cccc(CNCc2ccc(-c3ccc(-c4nc5cc(C(F)(F)F)ccc5[nH]4)s3)cc2)c1`, 181 nM; that for `Nc1nccc2ccc(-c3ccnc(NCc4cccnc4)n3)cc12`, 462 nM.
Next, `c1ccc(CN2CCC(NCc3ccc(-c4cncc5ccccc45)cc3)CC2)cc1`: 877 nM; `O=C(NCC1CCC(CNCCCc2ccccc2)CC1)c1cc(Cl)cc(Cl)c1` (configuration not stated): 846 nM; `Fc1ccc2[nH]c(-c3ccc(-c4ccc(CN5CCN(c6cnccn6)CC5)cc4)s3)nc2c1`: 617 nM.
Next, `CN1CCCC(CN2CCN(Cc3ccc(-c4ccc(-c5nc6cc(F)ccc6[nH]5)cc4)cc3)CC2)C1` (configuration not stated): 117 nM.
Take `Cc1c2ccncc2c(C)c2c1[nH]c1cc(Cc3ccccc3)c(O)cc12`: the XC50 was 148 nM.
Next, `CC1C(c2cccc(Cl)c2)OCC(C)(C)N1C(=O)CCN1CCCCC1` (configuration not stated): 923 nM; `CCOc1ccc(Cc2c(C)nc3nc(N)nc(N)c3c2C)cc1`: 1060 nM.
Next, `O=C(c1cc(C(=O)Nc2ccccc2F)c(=O)n(-c2ccccc2F)c1)c1cc(Cl)ccc1O`: 705 nM; `NS(=O)(=O)c1ccccc1Nc1nc(Nc2ccc(N3CCOCC3)cc2)nc2c1CCC2`: 667 nM.
On to `O=C(Nc1ccccc1)N(Cc1ccc(-c2ccc(CNC3CCCC3)cc2)cc1)C1CCN(Cc2ccccc2)CC1`, for which the XC50 amounted to 408 nM.
Turning to `CCCCN(CCCC)C(=O)CC(O)c1cc2c(Cl)cc(Cl)cc2c2cc(C(F)(F)F)ccc12` (configuration not stated), the XC50 came to 1210 nM.
The result for `COc1ccc(Nc2ncc3c(-c4cccc(NC(=O)Cc5ccncc5)c4)c[nH]c3n2)cc1OC` reads 1230 nM; that for `COc1cccc(C(=O)Nc2sc3c(c2C(N)=O)CCCC3)c1OC`, 932 nM.
Next, `N#Cc1cc(C(=O)Nc2ccccc2)c(N)nc1SCC(=O)NC(c1ccccc1)c1cccs1` (configuration not stated): 605 nM.
Next, `FC(F)(F)c1ccc2[nH]c(-c3ccc(-c4ccc(CNCC5CCCO5)cc4)s3)nc2c1` (configuration not stated): 158 nM.
In the case of `Nc1ccc(-c2nc3cc(Cc4ccc5[nH]c(-c6ccc(N)cc6)nc5c4)ccc3[nH]2)cc1`, the XC50 is 512 nM.
The result for `Cc1cccc2nc(-c3ccc(-c4ccc(CNC(C)C)cc4)cc3)[nH]c12` reads 676 nM; that for `COc1cccc(C2=CC(c3ccccc3)n3ncc(C(=O)Nc4ccc(Cl)cc4)c3N2)c1` (configuration not stated), 1060 nM; that for `CCCNc1nc(NCc2c(C)cccc2C)nc(NC(C)(C)C)n1`, 862 nM.
The result for `CC(C)c1ccc(Nc2nc(NCCc3c[nH]cn3)nc(NCc3ccccc3)n2)cc1` reads 687 nM; that for `CC(C)CC1c2[nH]c3ccccc3c(=O)c2CN1C(=O)OC(C)(C)C` (configuration not stated), 221 nM.
Next, `CCCC[C@H](NC(=O)OC(C)(C)C)C(=O)Nc1ccc(Cc2ccc(NC(=O)[C@H](CCCC)NC(=O)OC(C)(C)C)cc2)cc1`: 733 nM; `O=C(Nc1ccc(-c2cccc(-c3nc4cc(C(F)(F)F)ccc4[nH]3)c2)cc1)c1csnn1`: 802 nM; `CN1CCC(NCCS(=O)(=O)c2cccc(Nc3ccc(-c4cccc(F)c4)cn3)c2)CC1`: 1360 nM.
In the case of `Cc1ccc(NC(=O)Nc2ccc(S(=O)(=O)c3ccc(NC(=O)Nc4ccc(C)c(Cl)c4)cc3)cc2)cc1Cl`, the XC50 turned out to be 754 nM.
Next, `Cc1cc(CNCCCCCCNCc2ccc(-c3ccccc3)cc2)ccc1O`: 897 nM.
`CN(Cc1ccccc1)C(=O)c1nn(CCCN2CCC(N3CCCC3)CC2)cc1-c1ccc(Cl)c(Cl)c1`: the XC50 turned out to be 767 nM.
The result for `O=C(Nc1ccc(-c2cccc(-c3nc4ccccc4[nH]3)c2)cc1)NC1CC1c1ccccc1` (configuration not stated) reads 630 nM; that for `COc1cccc(NC(=O)[C@H](C)n2c(=O)[nH]c3ccccc3c2=O)c1`, 764 nM; that for `O=C(Nc1ccc(S(=O)(=O)N2CCCC2)cc1)c1cc(-c2cccnc2)nc2ccc(Cl)cc12`, 300 nM.
The result for `CN1CCN(c2ccnc3ccc(NC(=O)Nc4c(Cl)cccc4Cl)cc23)CC1` reads 877 nM; that for `Cc1ccc(CCC(C)NCC(O)c2cccc(Cl)c2)cc1` (configuration not stated), 804 nM.
The result for `CN1CCN(c2nsc3ccc(-c4ccc(NC(=O)Nc5cc(C(F)(F)F)ccc5F)cc4)cc23)CC1` reads 245 nM.
As for `CC(=O)Nc1cccc(C(=O)Nc2cccc(-c3csc(-c4nc5ccccc5[nH]4)c3)c2)c1`, the XC50 stood at 181 nM.
`Cc1nc(C)c(-c2ccc(C(=O)c3ccc(Cl)cc3)cc2)c(O)c1Br` yielded an XC50 of 810 nM.
The result for `Cc1cccc2nc(-c3cccc(-c4cccc(NC(=O)c5csnn5)c4)c3)[nH]c12` reads 304 nM.
The result for `O=C(CNc1ccc(Cl)c(S(=O)(=O)N2CCCC2)c1)Nc1ccc(Br)cc1F` reads 321 nM; that for `CC(C)CNCc1cccc(-c2ccccc2CNC2CCN(Cc3ccccc3)CC2)c1`, 579 nM; that for `CC(C)(C)C(=O)Nc1ccc(C(=O)Nc2cccc(-c3nc4ccccc4[nH]3)c2)cc1`, 282 nM.
The result for `CC(C)CCN1CCCN(Cc2ccc(C(=O)Nc3ccc(Cl)cc3)cc2)CC1` reads 796 nM; that for `CN1CCCC(OC(=O)c2ccccc2)C1` (configuration not stated), 756 nM; that for `O=C(/C=C/c1ccc(Cl)c(Cl)c1)N1CCCC(CCCN2CCC(c3c[nH]c4ccccc34)CC2)C1` (configuration not stated), 1090 nM.
Turning to `Cc1cc(NC(=O)NCCN2CCC(NS(=O)(=O)c3ccccc3F)CC2)c2ccccc2n1`, the XC50 was found to be 949 nM.
Next, `CN1CCN(CCCCCNc2c3ccccc3nc3ccccc23)CC1`: 741 nM.
Next, `CCCN(Cc1nnc(-c2cccs2)o1)C(=O)CSc1nnnn1-c1cc(C)cc(C)c1`: 500 nM.
The result for `Cn1nc(C(F)(F)F)c(-c2ccc(Br)cc2)c1NC(=O)Cc1ccccc1F` reads 157 nM.

The values are drawn from ChEMBL document CHEMBL1157539, “Thousands of chemical starting points for antimalarial lead identification” (Nature, 2010).
